Source: paper PMC8541513, “Stereoselective Synthesis of the Di-Spirooxindole Analogs Based Oxindole and Cyclohexanone Moieties as Potential Anticancer Agents” (Molecules, 2021)
Like-named read-outs stand apart in the source and are kept apart here.

How the values were obtained:
Breast MDA-MB231 = assay: MTT anticancer assay, breast MDA-MB231 cells; type: cell-based; conditions: Homo sapiens, MDA-MB-231, 48 h, 1-30 µM, ± SD of three independent experiments
Procedure: (§1) The antiproliferative activity against four cancer cell lines, including prostate PC3, cervical HeLa, and triple-negative breast cancer (MCF-7 and MDA-MB231) was evaluated by MTT assay, while standard drug doxorubicin was used as a reference for comparison (Table 1).
(§2) Cytotoxicity against BJ human fibroblast cells and cytotoxicity against PC3, HeLa, MCF-7, and MDA-MB231 cancer cell lines were evaluated by following the procedure as described in the literature (Supplementary Materials). […]
(§3) The Biological Activity Assays Protocols
(§4) Cytotoxic activity of compounds was evaluated in 96-well flat-bottomed micro plates by using the standard MTT (3-[4, 5-dimethylthiazole-2-yl]-2, 5-diphenyl-tetrazolium bromide) colorimetric assay.
(§5) For this purpose, PC3 cells (Prostate Cancer) / BJ Human fibroblast cells / HeLa cells (Cervical Cancer) / MCF-7 and MDA-MB-231 breast cancer cell line were cultured in Dulbecco’s Modified Eagle Medium, supplemented with 5% of fetal bovine serum (FBS), 100 IU/ml of penicillin and 100 µg/ml of streptomycin in 75 cm2 flasks, and kept in 5% CO2 incubator at 37 °C. Exponentially growing cells were harvested, counted with haemocytometer and diluted with a particular medium. Cell culture with the concentration of 1x10^5 cells/ml was prepared and introduced (100 µL/well) into 96-well plates. After overnight incubation, medium was removed and 200 µL of fresh medium was added with different concentrations of compounds (1-30µM). After 48 hrs, 200 µL MTT (0.5 mg/ml) was added to each well and incubated further for 4 hrs. Subsequently, 100µL of DMSO was added to each well. The extent of MTT reduction to formazan within cells was calculated by measuring the absorbance at 570 nm, using a micro plate reader (Spectra Max plus, Molecular Devices, CA, USA). The cytotoxicity was recorded […]
(§6) (1 picture or pasted object on this page, not shown here) […]
(§7) as concentration causing 50% growth inhibition (IC50) for PC3 cells. The percent inhibition was calculated by using the following formula:
(§8) % inhibition = 100-((mean of O.D of test compound – mean of O.D of negative control)/ (mean of O.D of positive control – mean of O.D of negative control)*100).
(§9) The results (% inhibition) were processed by using Soft- Max Pro software (Molecular Device, USA).
(§10) Standard drug used in the MTT assay was doxorubicin. […]

Human Fibroblast BJ = assay: MTT cytotoxicity assay against BJ human fibroblast cells; type: cell-based; conditions: 48 h, 1-30 µM, ± SD of three independent experiments
Procedure: as §2, §3, §4, §5, §6, §7, §8, §9, §10

Cervical HeLa = assay: MTT anticancer assay, cervical HeLa cells; type: cell-based; conditions: 48 h, 1-30 µM, ± SD of three independent experiments; for IC50: Homo sapiens, HeLa
Procedure: as §1, §2, §3, §4, §5, §6, §7, §8, §9, §10

Breast MCF-7 = assay: MTT anticancer assay, breast MCF-7 cells; type: cell-based; conditions: Homo sapiens, MCF7, 48 h, 1-30 µM, ± SD of three independent experiments
Procedure: as §1, §2, §3, §4, §5, §6, §7, §8, §9, §10

Prostate PC3 = assay: MTT anticancer assay, prostate PC3 cells; type: cell-based; conditions: Homo sapiens, PC-3, 48 h, 1-30 µM, ± SD of three independent experiments
Procedure: as §1, §2, §3, §4, §5, §6, §7, §8, §9, §10

[1] = tested on: MCF-7 breast cancer cells; design: method as in PMID 28126436, PMID 29413708; conditions: cited from earlier work
HeLa cancer cell line = tested on: HeLa cancer cell line; design: method as in doi:10.1016/j.molstruc.2019.03.032; conditions: cited from earlier work
HeLa cancer cells = tested on: HeLa cancer cells; design: method as in PMID 30844686; conditions: cited from earlier work
[2] = tested on: K562 leukemia cancer cells; design: method as in PMID 28126436, PMID 29413708; conditions: cited from earlier work
PC-3 = tested on: PC-3; design: method as in PMID 30802707; conditions: cited from earlier work
HepG2 [3] = tested on: HepG2; design: method as in PMID 30802707; conditions: cited from earlier work
HCT-116 = tested on: HCT-116; design: method as in PMID 30802707; conditions: cited from earlier work
HepG2 [4] = tested on: HepG2; design: method as in Barakat et al. (15); conditions: ref Barakat et al. (15); cited from earlier work

| Structure (SMILES) | IC50 (Breast MDA-MB231) [µM] | IC50 (Human Fibroblast BJ) [µM] | IC50 (Cervical HeLa) [µM] | IC50 (Breast MCF-7) [µM] | IC50 (Prostate PC3) [µM] | other results |
| --- | --- | --- | --- | --- | --- | --- |
| O=C1/C(=C/c2ccc(F)cc2)CCC[C@@]12[C@H](c1ccc(F)cc1)[C@H]1C[C@@H]3CCCC[C@@H]3N1[C@]21C(=O)Nc2cc(Cl)ccc21 [Compound 4l, (1. S,1′S,3′S,4a′S,8a′S,9a′R)-6″-Chloro-3-((E)-4-fluorobenzylidene)-1′-(4-fluorophenyl)-4a′,5′,6′,7′,8′,8a′,9′,9a′-octahydro-1′H-dispiro[cyclohexane-1,2′-pyrrolo[1,2-a]indole-3′,3″-indoline]-2,2″-dione] | 14.45 ± 0.08 | > 30 | 7.2 ± 0.5 | > 30 | > 30 | melting point: 96 to 97 °C |
| O=C1/C(=C/c2ccc(C(F)(F)F)cc2)CCC[C@@]12[C@H](c1ccc(C(F)(F)F)cc1)[C@H]1C[C@@H]3CCCC[C@@H]3N1[C@]21C(=O)Nc2cc(Cl)ccc21 [Compound 4m, (1. S,1′S,3′S,4a′S,8a′S,9a′R)-6″-Chloro-3-((E)-4-(trifluoromethyl)benzylidene)-1′-(4-(trifluoromethyl)phenyl)-4a′,5′,6′,7′,8′,8a′,9′,9a′-octahydro-1′H-dispiro[cyclohexane-1,2′-pyrrolo[1,2-a]indole-3′,3″-indoline]-2,2″-dione] | > 30 | > 30 | 24.6 ± 0.4 | > 30 | > 30 | melting point: 78 to 79 °C |
| Cc1ccc2c(c1)[C@]1(C(=O)N2)N2[C@H](C[C@@H]3CCCC[C@@H]32)[C@@H](c2ccc(C(F)(F)F)cc2)[C@@]12CCC/C(=C\c1ccc(C(F)(F)F)cc1)C2=O [Compound 4n, (1. S,1′S,3′S,4a′S,8a′S,9a′R)-5″-Methyl-3-((E)-4-(trifluoromethyl)benzylidene)-1′-(4-(trifluorom-thyl)phenyl)-4a′,5′,6′,7′,8′,8a′,9′,9a′-octahydro-1′H-dispiro[cyclohexane-1,2′-pyrrolo[1,2-a]indole-3′,3″-indoline]-2,2″-dione] | > 30 | > 30 | > 30 | > 30 | > 30 | IC50, Cervical HeLa (Cervical HeLa): inactive; melting point: 73 to 74 °C |
| O=c1[nH]cc(F)c(=O)[nH]1 [Compound 5-FU, 5-fluorouracil] |  |  |  |  |  | IC50 [1]: 78.28 ± 0.2 µM |
| COc1cccc2c1C(=O)c1c(O)c3c(c(O)c1C2=O)C[C@@](O)(C(=O)CO)C[C@@H]3O[C@H]1C[C@H](N)[C@H](O)[C@H](C)O1 [Doxorubicin, reference compound] | 0.32 ± 0.002 | > 30 | 0.9 ± 0.14 | 0.79 ± 0.05 | 1.9 ± 0.4 | IC50 (HeLa cancer cell line): 1.2 µM |
| O=C(c1ccccn1)[C@@H]1[C@@H](c2ccccc2Cl)[C@H](c2ccccc2)N[C@@]12C(=O)Nc1ccccc12 [III] |  |  |  |  |  | selectivity between HeLa cancer cells and Vero healthy cells (HeLa cancer cells): 3 fold |
| O=C1C(=Cc2ccc(Br)cc2)CCCC12C1CCCN1C1(C(=O)Nc3ccccc31)C2c1ccc(Br)cc1 (centres unmarked) [VIII] |  |  |  |  |  | IC50 [1]: 15.32 ± 0.02 µM |
| COc1ccc(C=C2CCCC3(C2=O)C(c2ccc(OC)cc2)C2CSCN2C32C(=O)Nc3ccccc32)cc1 (centres unmarked) [VII] |  |  |  |  |  | IC50 [2]: 13.4 ± 0.14 µM |
| O=C(c1ccc(F)cc1)[C@H]1[C@H](c2ccc(Cl)cc2Cl)C2CSCN2[C@]12C(=O)Nc1ccccc12 (some centres unmarked) [VI] |  |  |  |  |  | IC50 (HeLa cancer cell line): 11.2 µM |
| O=C(/C=C/c1ccc(Cl)cc1Cl)[C@H]1[C@H](c2ccc(Cl)cc2Cl)[C@H]2CSCN2[C@]12C(=O)Nc1ccccc12 [V] |  |  |  |  |  | IC50 (PC-3): < 4 µM; IC50 (HepG2 [3]): < 4 µM; selectivity index for the cancer cells versus the normal cells (HCT-116; HCT-116, HepG2, PC-3 versus normal cells): > 2; IC50 (HCT-116): < 4 µM |
| N.N.[Cl][Pt][Cl] [cisplatin] |  |  |  |  |  | IC50 (HepG2 [4]): 5.5 µM |
